The source of these data is PubChem BioAssay AID312 (DTP/NCI, 2004).

Each structure is given as a SMILES string. Where “and” joins values, the source holds several entries; their conditions need not be identical. Identical values can stand only once. Inconclusive results and toxic doses are left out.

This experiment deals with BDF1 mice, C1498 leukemia ip, median survival T/C. The experiment in a line: NCI In Vivo Anticancer Drug Screen. Data for tumor model C1498 Myeloid Leukemia (intraperitoneal) in B6D2F1 (BDF1) mice. The conditions noted are these: endpoint: median survival time, higher = longer survival. The procedure: The antitumor activity of compounds was measured in mice bearing transplantable tumors. Survival or tumor size were measured and the results are expressed as the measurement made in the treated group (T) divided by the measurement made in the vehicle treated control group (C). The tumor model used in this assay is C1498 Myeloid Leukemia (intraperitoneal) in B6D2F1 (BDF1) mice

Where [1] appears, read: dose: 0.5 mg/kg/injection, schedule: Q01DX010 (ip), vehicle: saline.
Setting [2] is: dose: 2.0 mg/kg/injection, schedule: Q01DX010 (ip), vehicle: saline.
Where [3] appears, read: dose: 4.0 mg/kg/injection, schedule: Q01DX010 (ip), vehicle: saline.
The mark [4] stands for this setting: dose: 8.0 mg/kg/injection, schedule: Q01DX010 (ip), vehicle: saline.
[5] abbreviates: dose: 5.0 mg/kg/injection, schedule: Q01DX010 (ip), vehicle: saline.
Where [6] appears, read: dose: 10.0 mg/kg/injection, schedule: Q01DX010 (ip), vehicle: saline.
Setting [7] is: dose: 20.0 mg/kg/injection, schedule: Q01DX010 (ip), vehicle: saline.
[8] abbreviates: dose: 40.0 mg/kg/injection, schedule: Q01DX010 (ip), vehicle: saline.
Setting [9] is: dose: 16.0 mg/kg/injection, schedule: Q01DX010 (ip), vehicle: saline.
Where [10] appears, read: dose: 32.0 mg/kg/injection, schedule: Q01DX010 (ip), vehicle: saline.

As to `Nc1nc(=S)c2ncn(C3OC(CO)C(O)C3O)c2[nH]1` (centres undefined), the T/C was 113 % of control under setting [1]; 100 % of control and 111 % of control under setting [2]; 100 % of control and 90 % of control under setting [3]; 107 % of control under setting [4].

Consider `Nc1nc(F)nc2c1ncn2C1OC(CO)C(O)C1O` (centres undefined), for which the T/C by setting is: under setting [1], 100 % of control; (dose: 1.0 mg/kg/injection, schedule: Q01DX010 (ip), vehicle: saline) 100 % of control and 105 % of control and 108 % of control; under setting [2], 100 % of control and 105 % of control and 108 % of control; under setting [3], 100 % of control and 108 % of control and 110 % of control.

In the case of `CS(=O)(=O)OCCN(CCOS(C)(=O)=O)c1ccc(N=O)cc1`, the T/C (dose: 0.25 mg/kg/injection, schedule: Q01DX010 (ip), vehicle: saline) is 122 % of control.

In the case of `CCCSc1ncnc2nc[nH]c12`, the T/C was 100 % of control and 104 % of control (dose: 31.3 mg/kg/injection, schedule: Q01DX010 (ip), vehicle: saline); 100 % of control and 109 % of control (dose: 62.5 mg/kg/injection, schedule: Q01DX010 (ip), vehicle: saline); 104 % of control and 90 % of control (dose: 125.0 mg/kg/injection, schedule: Q01DX010 (ip), vehicle: saline).

As to `CO[C@@H]1[C@@H](OC2OC(C)C(OC3CC(C)(O)C(OC(=O)CC(C)C)C(C)O3)C(N(C)C)C2O)[C@@H](CC=O)C[C@@H](C)C(=O)/C=C/C2O[C@H]2C[C@@H](C)OC(=O)C[C@H]1OC(C)=O` (some centres undefined), the T/C was 109 % of control and 91 % of control (dose: 37.5 mg/kg/injection, schedule: Q01DX010 (ip), vehicle: saline); 100 % of control and 91 % of control (dose: 75.0 mg/kg/injection, schedule: Q01DX010 (ip), vehicle: saline); 95 % of control and 90 % of control (dose: 150.0 mg/kg/injection, schedule: Q01DX010 (ip), vehicle: saline); 91 % of control and 90 % of control (dose: 300.0 mg/kg/injection, schedule: Q01DX010 (ip), vehicle: saline).

For the compound `CC(=O)O[C@]1(C(C)=O)CC[C@H]2[C@@H]3C[C@H](C)C4=CC(=O)C=C[C@]4(C)[C@@]3(F)[C@@H](O)C[C@@]21C`, the T/C runs as follows: (dose: 12.5 mg/kg/injection, schedule: Q01DX010 (sc), vehicle: steriod suspending solution) 100 % of control; (dose: 25.0 mg/kg/injection, schedule: Q01DX010 (sc), vehicle: steriod suspending solution) 100 % of control; (dose: 50.0 mg/kg/injection, schedule: Q01DX010 (sc), vehicle: steriod suspending solution) 100 % of control; (dose: 100.0 mg/kg/injection, schedule: Q01DX010 (sc), vehicle: steriod suspending solution) 100 % of control.

`COc1cc(-c2ccc(Nc3ccccc3C(=O)O)c(OC)c2)ccc1N`: the T/C is 100 % of control under setting [5]; 95 % of control and 100 % of control under setting [6]; 100 % of control and 105 % of control under setting [7]; 118 % of control under setting [8].

With `CC[n+]1c(-c2ccccc2)c2cc(N)ccc2c2ccc(N)cc21`, the T/C (dose: 1.25 mg/kg/injection, schedule: Q01DX010 (ip), vehicle: saline) is 110 % of control; the T/C (dose: 2.5 mg/kg/injection, schedule: Q01DX010 (ip), vehicle: saline) is 105 % of control and 109 % of control; the T/C under setting [5] is 100 % of control and 110 % of control; the T/C under setting [6] was 100 % of control and 110 % of control; the T/C under setting [7] is 100 % of control.

With `N=[N+]=CC(=O)OCC(N)C(=O)O` (centres undefined), the T/C (dose: 6.25 mg/kg/injection, schedule: Q01DX010 (ip), vehicle: saline) is 150 % of control.

`Nc1nc2n[nH]nc2c(=O)[nH]1`: the T/C runs as follows: (dose: 25.0 mg/kg/injection, schedule: Q01DX010 (ip), vehicle: alkali diluted with saline) 92 % of control and 96 % of control; (dose: 50.0 mg/kg/injection, schedule: Q01DX010 (ip), vehicle: alkali diluted with saline) 92 % of control and 96 % of control; (dose: 100.0 mg/kg/injection, schedule: Q01DX010 (ip), vehicle: alkali diluted with saline) 100 % of control and 89 % of control; (dose: 200.0 mg/kg/injection, schedule: Q01DX010 (ip), vehicle: alkali diluted with saline) 96 % of control.

Consider `CN(C)[C@@H]1C(=O)C(C(N)=O)=C(O)[C@@]2(O)C(=O)C3=C(O)c4c(O)cccc4C[C@H]3C[C@@H]12`, for which the T/C by setting is: (dose: 7.5 mg/kg/injection, schedule: Q01DX010 (ip), vehicle: saline) 105 % of control and 116 % of control; (dose: 15.0 mg/kg/injection, schedule: Q01DX010 (ip), vehicle: saline) 110 % of control and 112 % of control; (dose: 30.0 mg/kg/injection, schedule: Q01DX010 (ip), vehicle: saline) 95 % of control; (dose: 60.0 mg/kg/injection, schedule: Q01DX010 (ip), vehicle: saline) 95 % of control.

As to `CC(=O)NC1=C(N2CC2)C(=O)C(NC(C)=O)=C(N2CC2)C1=O`, the T/C runs as follows: (dose: 0.13 mg/kg/injection, schedule: Q01DX010 (ip), vehicle: saline) 108 % of control; (dose: 125.0 micrograms/kg/injection, schedule: Q01DX010 (ip), vehicle: saline) 104 % of control; (dose: 250.0 micrograms/kg/injection, schedule: Q01DX010 (ip), vehicle: saline) 109 % of control and 116 % of control.

For `Nc1nc(=S)c2[nH]cnc2[nH]1`, the T/C by setting is: (dose: 1.25 mg/kg/injection, schedule: Q01DX010 (ip), vehicle: other) 104 % of control; (dose: 2.5 mg/kg/injection, schedule: Q01DX010 (ip), vehicle: other) 123 % of control; (dose: 5.0 mg/kg/injection, schedule: Q01DX010 (ip), vehicle: other) 104 % of control; (dose: 10.0 mg/kg/injection, schedule: Q01DX010 (ip), vehicle: other) 109 % of control; (dose: 27.0 mg/kg/injection, schedule: Q01DX001 (ip), vehicle: alkali diluted with saline) 97 % of control; (dose: 40.0 mg/kg/injection, schedule: Q01DX001 (ip), vehicle: alkali diluted with saline) 101 % of control. Also, the T/C was 112 % of control (dose: 60.0 mg/kg/injection, schedule: Q01DX001 (ip), vehicle: alkali diluted with saline) and 150 % of control (dose: 90.0 mg/kg/injection, schedule: Q01DX001 (ip), vehicle: alkali diluted with saline).

With `O=C(Nc1ccc(C2=NCCN2)cc1)c1cccc(C(=O)Nc2ccc(C3=NCCN3)cc2)c1`, the T/C under setting [4] is 92 % of control and 96 % of control; the T/C under setting [9] is 96 % of control and 103 % of control; the T/C under setting [10] is 115 % of control and 117 % of control.

Turning to `COc1cc(C(=O)O)c2c(c1C)OC(=O)c1c(C)cc(O)c(C=O)c1O2`, the T/C is, setting by setting: under setting [4], 100 % of control; under setting [9], 108 % of control; under setting [10], 95 % of control.

As for `CC(CCC(C)OS(C)(=O)=O)OS(C)(=O)=O` (centres undefined), the T/C was 109 % of control under setting [3], 95 % of control under setting [4], 100 % of control under setting [9] and 104 % of control under setting [10].

As for `CN(C)/N=N/c1nc[nH]c1C(N)=O`, the T/C is, setting by setting: (dose: 25.0 mg/kg/injection, schedule: Q01DX010 (ip), vehicle: saline) 108 % of control; (dose: 50.0 mg/kg/injection, schedule: Q01DX010 (ip), vehicle: saline) 112 % of control; (dose: 100.0 mg/kg/injection, schedule: Q01DX010 (ip), vehicle: saline) 158 % of control; (dose: 200.0 mg/kg/injection, schedule: Q01DX010 (ip), vehicle: saline) 158 % of control and 159 % of control; (dose: 400.0 mg/kg/injection, schedule: Q01DX010 (ip), vehicle: saline) 118 % of control.

As for `O=c1[nH]c(=O)n(C2CC(O)C(CO)O2)cc1F` (centres undefined), the T/C under setting [5] was 109 % of control; the T/C under setting [6] is 115 % of control and 118 % of control; the T/C under setting [8] is 154 % of control; the T/C (dose: 80.0 mg/kg/injection, schedule: Q01DX010 (ip), vehicle: saline) is 107 % of control.

For the compound `N=C(N)c1ccc(Nc2ccc(C(=N)N)cc2)cc1`, the T/C runs as follows: (dose: 1.5 mg/kg/injection, schedule: Q01DX010 (ip), vehicle: saline) 100 % of control; (dose: 3.0 mg/kg/injection, schedule: Q01DX010 (ip), vehicle: saline) 90 % of control; (dose: 6.0 mg/kg/injection, schedule: Q01DX010 (ip), vehicle: saline) 86 % of control; (dose: 12.0 mg/kg/injection, schedule: Q01DX010 (ip), vehicle: saline) 86 % of control.

For the compound `CN(Cc1cnc2nc(N)nc(N)c2n1)c1ccc(C(=O)N[C@@H](CCC(=O)O)C(=O)O)cc1`, the T/C is 110 % of control (dose: 1.5 mg/kg/injection, schedule: Q01DX009 (ip), vehicle: sodium bicarbonate) and 124 % of control (dose: 2.0 mg/kg/injection, schedule: Q01DX009 (ip), vehicle: sodium bicarbonate).
